For six cell lines, relative viability results are on record in the supplement of paper PMC10307832.

What all share (experiment): relative viability (nuclei count vs DMSO), 5 days (fraction); higher = more cells survive
Compound in the assay “PAC-1 + Trametinib”: C=CCc1cccc(/C=N/NC(=O)CN2CCN(Cc3ccccc3)CC2)c1O [PAC-1] + CC(=O)Nc1cccc(-n2c(=O)n(C3CC3)c(=O)c3c(Nc4ccc(I)cc4F)n(C)c(=O)c(C)c32)c1 [Trametinib] (partner 0.02 µM)
In outline:
(§1)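 The day after seeding in 1536-well plates, lung cancer cell lines were treated by pin tool with a single drug, or with a fixed anchor-drug dose together with five library-drug doses (not always all listed) in √10 steps. After 5 days, a combined fix-and-stain solution (final 0.05% Triton X-100, 1% formaldehyde, 1 ug/ml Hoechst) was added. Nuclei counted on 4× images gave relative viability as treated counts over vehicle counts, reported as the median of duplicate plates.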

Compound in the assay “BMX-IN-1 + Foretinib”: C=CC(=O)Nc1cc(-n2c(=O)ccc3cnc4ccc(-c5ccc(NS(C)(=O)=O)cc5)cc4c32)ccc1C [BMX-IN-1] + COc1cc2c(Oc3ccc(NC(=O)C4(C(=O)Nc5ccc(F)cc5)CC4)cc3F)ccnc2cc1OCCCN1CCOCC1 [Foretinib] (partner 0.25 µM)
In outline:
as §1

Compound in the assay “PAC-1 + Olaparib”: C=CCc1cccc(/C=N/NC(=O)CN2CCN(Cc3ccccc3)CC2)c1O [PAC-1] + O=C(c1cc(Cc2n[nH]c(=O)c3ccccc23)ccc1F)N1CCN(C(=O)C2CC2)CC1 [Olaparib] (partner 8 µM)
The essentials:
as §1

Compound in the assay “Ibrutinib + Palbociclib”: C=CC(=O)N1CCC[C@@H](n2nc(-c3ccc(Oc4ccccc4)cc3)c3c(N)ncnc32)C1 [Ibrutinib] + CC(=O)c1c(C)c2cnc(Nc3ccc(N4CCNCC4)cn3)nc2n(C2CCCC2)c1=O [Palbociclib] (partner 0.5 µM)
In outline:
as §1

Regarding PC-14, the relative viability with PAC-1 + Trametinib (first compound 0.02 µM) worked out at 0.815; with PAC-1 + Trametinib (first compound 0.06325 µM), 0.704; with PAC-1 + Trametinib (first compound 0.2 µM), 0.781; in the assay with PAC-1 + Trametinib (first compound 2 µM), 0.793; with BMX-IN-1 + Foretinib (first compound 0.02 µM) it was 1.04; in the assay with BMX-IN-1 + Foretinib (first compound 0.2 µM) it was 1.05. Moreover, the relative viability in the assay with BMX-IN-1 + Foretinib (first compound 0.6325 µM) stood at 1.16; in the assay with BMX-IN-1 + Foretinib (first compound 2 µM), 0.922; in the assay with PAC-1 + Olaparib (first compound 0.02 µM), 0.255; in the assay with PAC-1 + Olaparib (first compound 0.06325 µM) it was 0.275; in the assay with PAC-1 + Olaparib (first compound 0.2 µM), 0.288; with PAC-1 + Olaparib (first compound 2 µM), 0.298. Moreover, the relative viability amounted to 0.527 with Ibrutinib + Palbociclib (first compound 0.005 µM); 0.495 with Ibrutinib + Palbociclib (first compound 0.01581 µM); 0.576 in the assay with Ibrutinib + Palbociclib (first compound 0.05 µM); 0.575 in the assay with Ibrutinib + Palbociclib (first compound 0.1581 µM); 0.172 with Ibrutinib + Palbociclib (first compound 0.5 µM).

As to RERF-LC-KJ, the relative viability is 0.901 in the assay with PAC-1 + Trametinib (first compound 0.02 µM); 0.91 with PAC-1 + Trametinib (first compound 0.06325 µM); 0.791 with PAC-1 + Trametinib (first compound 0.2 µM); 0.79 with PAC-1 + Trametinib (first compound 2 µM); 0.971 in the assay with BMX-IN-1 + Foretinib (first compound 0.02 µM); 1.02 with BMX-IN-1 + Foretinib (first compound 0.2 µM). The relative viability is 1.08 with BMX-IN-1 + Foretinib (first compound 0.6325 µM); 0.868 with BMX-IN-1 + Foretinib (first compound 2 µM); 0.891 with PAC-1 + Olaparib (first compound 0.02 µM); 0.86 with PAC-1 + Olaparib (first compound 0.06325 µM); 0.929 with PAC-1 + Olaparib (first compound 0.2 µM); 0.83 with PAC-1 + Olaparib (first compound 2 µM). The relative viability with Ibrutinib + Palbociclib (first compound 0.005 µM) stood at 1.12; in the assay with Ibrutinib + Palbociclib (first compound 0.01581 µM), 0.915; with Ibrutinib + Palbociclib (first compound 0.05 µM), 0.928; with Ibrutinib + Palbociclib (first compound 0.1581 µM) it was 1.09; in the assay with Ibrutinib + Palbociclib (first compound 0.5 µM) it was 0.931.

For SK-LU-1, the relative viability with PAC-1 + Trametinib (first compound 0.02 µM) stood at 0.495; in the assay with PAC-1 + Trametinib (first compound 0.06325 µM), 0.481; with PAC-1 + Trametinib (first compound 0.2 µM), 0.484; in the assay with PAC-1 + Trametinib (first compound 2 µM) it was 0.584; with BMX-IN-1 + Foretinib (first compound 0.02 µM) it was 0.92; in the assay with BMX-IN-1 + Foretinib (first compound 0.2 µM), 1.04. The relative viability in the assay with BMX-IN-1 + Foretinib (first compound 0.6325 µM) was found to be 0.785; with BMX-IN-1 + Foretinib (first compound 2 µM), 0.76; with PAC-1 + Olaparib (first compound 0.02 µM), 0.405; in the assay with PAC-1 + Olaparib (first compound 0.06325 µM) it was 0.465; with PAC-1 + Olaparib (first compound 0.2 µM), 0.455; with PAC-1 + Olaparib (first compound 2 µM), 0.414. The relative viability came out at 0.372 in the assay with Ibrutinib + Palbociclib (first compound 0.005 µM); 0.365 in the assay with Ibrutinib + Palbociclib (first compound 0.01581 µM); 0.392 with Ibrutinib + Palbociclib (first compound 0.05 µM); 0.407 with Ibrutinib + Palbociclib (first compound 0.1581 µM); 0.365 with Ibrutinib + Palbociclib (first compound 0.5 µM).

Turning to SW 900, the relative viability in the assay with PAC-1 + Trametinib (first compound 0.06325 µM) was 0.8; in the assay with PAC-1 + Trametinib (first compound 0.2 µM), 0.686; in the assay with PAC-1 + Trametinib (first compound 2 µM), 0.817; in the assay with BMX-IN-1 + Foretinib (first compound 0.02 µM), 0.815; with BMX-IN-1 + Foretinib (first compound 0.2 µM) it was 0.944; with BMX-IN-1 + Foretinib (first compound 0.6325 µM) it was 0.757. In addition, the relative viability with BMX-IN-1 + Foretinib (first compound 2 µM) came out at 0.802; with PAC-1 + Olaparib (first compound 0.06325 µM), 1.07; in the assay with PAC-1 + Olaparib (first compound 0.2 µM), 0.85; with PAC-1 + Olaparib (first compound 2 µM), 0.718; with Ibrutinib + Palbociclib (first compound 0.005 µM) it was 0.572; with Ibrutinib + Palbociclib (first compound 0.01581 µM), 0.437. Also, the figures for the relative viability in the assay with Ibrutinib + Palbociclib (first compound 0.05 µM), with Ibrutinib + Palbociclib (first compound 0.1581 µM) and with Ibrutinib + Palbociclib (first compound 0.5 µM) were 0.552, 0.511 and 0.479, respectively.

For the cell line SW 1573, the relative viability with PAC-1 + Trametinib (first compound 0.02 µM) was determined as 0.492; with PAC-1 + Trametinib (first compound 0.06325 µM) it was 0.623; with PAC-1 + Trametinib (first compound 0.2 µM) it was 0.528; in the assay with PAC-1 + Trametinib (first compound 2 µM), 0.625; in the assay with BMX-IN-1 + Foretinib (first compound 0.02 µM), 0.953; with BMX-IN-1 + Foretinib (first compound 0.2 µM) it was 0.947. The relative viability came to 1.02 with BMX-IN-1 + Foretinib (first compound 0.6325 µM); 0.337 with BMX-IN-1 + Foretinib (first compound 2 µM); 0.446 with PAC-1 + Olaparib (first compound 0.02 µM); 0.426 with PAC-1 + Olaparib (first compound 0.06325 µM); 0.442 with PAC-1 + Olaparib (first compound 0.2 µM); 0.41 with PAC-1 + Olaparib (first compound 2 µM). In addition, the relative viability amounted to 0.345 with Ibrutinib + Palbociclib (first compound 0.01581 µM), 0.419 with Ibrutinib + Palbociclib (first compound 0.05 µM), 0.393 with Ibrutinib + Palbociclib (first compound 0.1581 µM) and 0.477 with Ibrutinib + Palbociclib (first compound 0.5 µM).

On to UMC-11, for which the relative viability with PAC-1 + Trametinib (first compound 0.02 µM) came to 0.731; with PAC-1 + Trametinib (first compound 0.06325 µM), 0.742; with PAC-1 + Trametinib (first compound 0.2 µM) it was 0.878; with PAC-1 + Trametinib (first compound 2 µM), 0.713; with BMX-IN-1 + Foretinib (first compound 0.02 µM), 1.15; with BMX-IN-1 + Foretinib (first compound 0.2 µM), 1.13. The relative viability with BMX-IN-1 + Foretinib (first compound 0.6325 µM) was determined as 0.981; with BMX-IN-1 + Foretinib (first compound 2 µM), 1.11; with PAC-1 + Olaparib (first compound 0.02 µM) it was 0.411; with PAC-1 + Olaparib (first compound 0.06325 µM) it was 0.366; with PAC-1 + Olaparib (first compound 0.2 µM), 0.366; with PAC-1 + Olaparib (first compound 2 µM) it was 0.377. The relative viability came to 0.335 in the assay with Ibrutinib + Palbociclib (first compound 0.01581 µM), 0.359 in the assay with Ibrutinib + Palbociclib (first compound 0.05 µM), 0.417 in the assay with Ibrutinib + Palbociclib (first compound 0.1581 µM) and 0.355 with Ibrutinib + Palbociclib (first compound 0.5 µM).
